{"source": "patent US20240300943A1", "about": "“NOVEL SALTS OF HETEROCYCLIC COMPOUND AS PROTEIN KINASE INHIBITOR AND USES THEREOF” (HK INNO.N CORPORATION, priority 2021, published 2024)", "key": {"JAK2, Tyk2": {"system": "JAK2, Tyk2", "test": "Human whole blood assay, JAK2, Tyk2", "assay_type": "cell-based", "settings": "cytokine-induced STAT phosphorylation", "experimental": "(§1) A stock solution of Compound 1 obtained according to Preparation Example 1 was diluted with distilled water and then serially diluted at ⅕ with 4% DMSO. 5 μL of test material was added to 100 μL of whole blood collected using a 1.7 mL eppendorf tube, mixed, and incubated at 37° C. for 45 minutes.\n(§2) IL-6 (10 μg/ml) was diluted with 0.1% BSA/DW to reach 1 μg/mL each. 5 μL of IL-6 was added (at a final concentration of 50 ng/mL) and incubated at 37° C. for 15 minutes. At this time, 5 μL of DPBS was added as a non-stimulated control group. Lyse/fix buffer 5× was diluted 1× in distilled water and used. […]\n(§3) For double staining of CD4 and pSTATI, anti-[…] and anti-pSTATI were mixed in a staining buffer and added to each of the samples. […] On the next day, the results were analyzed using FACSCanto II. […]\n(§4) The numerical values analyzed by FlowJo were calculated to obtain IC50 values using GraphPad Prism 5 software (product name).\n(§5) No treatment response (NTR) was set as a reference, and the degree of the phosphorylation of STAT induced by cytokines was converted into a relative ratio (% control group). A dose-response plot was obtained for each concentration-dependent activity of each test material using GraphPad Prism (version 5.0) and ICso values were calculated."}, "JAK3": {"biological_target": "T1, JAK3 (Homo sapiens, UniProt P52333)", "T1 sequence (P52333 1-1124)": "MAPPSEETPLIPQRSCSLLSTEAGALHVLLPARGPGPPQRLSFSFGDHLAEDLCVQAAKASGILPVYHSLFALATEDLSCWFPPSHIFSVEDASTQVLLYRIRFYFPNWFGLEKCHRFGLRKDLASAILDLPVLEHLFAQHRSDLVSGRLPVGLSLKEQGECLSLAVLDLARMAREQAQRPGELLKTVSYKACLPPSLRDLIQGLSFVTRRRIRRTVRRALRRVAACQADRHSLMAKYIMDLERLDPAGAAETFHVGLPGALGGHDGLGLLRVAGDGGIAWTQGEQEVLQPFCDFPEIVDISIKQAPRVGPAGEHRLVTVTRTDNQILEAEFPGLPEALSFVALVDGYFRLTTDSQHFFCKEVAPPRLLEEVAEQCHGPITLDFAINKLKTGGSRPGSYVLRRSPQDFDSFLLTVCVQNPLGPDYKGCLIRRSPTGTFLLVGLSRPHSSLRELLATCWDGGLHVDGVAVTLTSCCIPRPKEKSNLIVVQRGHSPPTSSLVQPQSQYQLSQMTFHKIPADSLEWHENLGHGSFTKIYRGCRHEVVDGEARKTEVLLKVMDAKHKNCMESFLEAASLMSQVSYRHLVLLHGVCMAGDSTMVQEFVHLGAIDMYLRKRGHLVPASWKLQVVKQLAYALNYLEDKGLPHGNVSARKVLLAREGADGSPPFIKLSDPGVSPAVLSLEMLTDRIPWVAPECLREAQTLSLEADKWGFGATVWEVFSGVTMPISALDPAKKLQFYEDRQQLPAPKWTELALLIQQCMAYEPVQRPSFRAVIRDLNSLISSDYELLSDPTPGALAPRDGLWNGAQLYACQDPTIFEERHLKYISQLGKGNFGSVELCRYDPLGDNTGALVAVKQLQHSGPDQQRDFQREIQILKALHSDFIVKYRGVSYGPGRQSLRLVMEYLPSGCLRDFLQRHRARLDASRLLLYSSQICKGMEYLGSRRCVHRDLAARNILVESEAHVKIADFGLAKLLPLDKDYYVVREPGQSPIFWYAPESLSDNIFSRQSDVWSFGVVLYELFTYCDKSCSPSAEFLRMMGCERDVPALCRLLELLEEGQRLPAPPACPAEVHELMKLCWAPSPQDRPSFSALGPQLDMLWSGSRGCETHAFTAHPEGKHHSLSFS", "test": "ADP-Glo JAK3 kinase assay", "assay_type": "biochemical", "settings": "read-out: IC50, In vitro enzyme JAK3", "experimental": "10 mM of Compound 1 was diluted in DMSO to prepare samples at four concentrations (50,000 nM, 5,000 nM, 500 nM and 50 nM). 10 mM of ATP was diluted at 1/40 in 1× kinase buffer to make a preparation. 1 mg/mL of Poly (Glu4, Tyr1) peptide was used as a stock solution. 100 ng/μL of JAK3 enzyme was diluted at 1/20 in 1× kinase buffer to make a preparation. 1 μL of ATP, 1 μL of Poly (Glu4, Tyr1) peptide, and 1 μL of Compound 1 prepared as above were mixed, after which 2 μL of JAK3 enzyme was finally added and reacted at 30° C. for 40 minutes. At this time, a tube without JAK3 enzyme was prepared as a blank and a tube without Compound 1 was prepared as a positive control group together (a final concentration of samples was 10,000 nM, 1,000 nM, 100 nM, and 10 nM).\nThen, 5 μL of ADP-glo was added to each tube and reacted at 30° C. for 40 minutes, after which 10 μL of kinase detection reagent was added thereto and reacted at room temperature for 15 minutes. After 18 μL of the reactant was transferred to a 384 well plate, luminescence was measured using a plate reader."}, "JAK1, Tyk2": {"system": "JAK1, Tyk2", "test": "Human whole blood assay, JAK1, Tyk2", "assay_type": "cell-based", "settings": "cytokine-induced STAT phosphorylation", "experimental": "as §1, §2, §3, §4, §5"}}, "data": [{"smiles": "C[C@@H]1CN(C(=O)CC#N)CC=C1c1cc(NC(=O)C2CC2)nc2[nH]ccc12", "note": "[Compound 1, (S)—N-(4-(1-(2-cyanoacetyl)-3-methyl-1,2,3,6-tetrahydropyridin-4-yl)-1H-pyrrolo[2,3-b]pyridin-6-yl)cyclopropanecarboxamide]", "values": [{"measurement": "IC50", "setting": "JAK2, Tyk2", "result": 3640, "unit": "nM"}, {"measurement": "IC50", "setting": "JAK3", "result": 315, "unit": "nM"}, {"measurement": "IC50", "setting": "JAK1, Tyk2", "result": 168, "unit": "nM"}]}]}
